BigSolDB 2.1

CC(=O)Oc1ccccc1C(=O)O
solubility (mole fraction)
Settings	283.15 K	288.15 K	293.15 K	298.15 K	303.15 K	308.15 K	313.15 K	318.15 K	323.15 K
in acetone	0.0629	0.0733	0.0821	0.0931	0.105	0.113	0.126	0.138	0.157
in ethanol	0.0334	0.0426	0.0515	0.0614	0.074	0.0876	0.102	0.122	0.141
in ethyl acetate	0.0267	0.0314	0.0361	0.0413	0.0471	0.0543	0.0651	0.0738	0.0849
in n-propanol	0.0254	0.0316	0.037	0.0473	0.0576	0.0687	0.0816	0.0971	0.118
